According to patent US7384935B2 (Thallion Pharmaceuticals, Inc., priority 2005, dated 2008):
Where two headings read alike, the source gives them in different places.

Columns and labels:
[1] = system: MDA-MB-231 (mammary gland adenocarcinoma); test: In vitro cytotoxic activity (GI50), propidium iodide dye indicator; format: cell-based; details: MDA-MB-231, 96 hrs incubation, read-out: In vitro Cytotoxic Activities GI50, MDA-MB-231
From the text: (§1) Procedure used for the tests is described below.

[2] = system: PC-3 (prostate adenocarcinoma); test: as above; format: cell-based; details: PC-3, 96 hrs incubation; read-out: In vitro Cytotoxic Activities GI50, PC-3
From the text: as §1

[3] = system: SF268 (CNS); test: as above; format: cell-based; details: SF-268, 96 hrs incubation, read-out: In vitro Cytotoxic Activities GI50, SF-268
From the text: as §1

[4] = system: HT-29 (colorectal carcinoma); test: as above; details: read-out: In vitro Cytotoxic Activities GI50, HT-29
[5] = system: HT-29, SF268, MDA-MB-231 and PC-3; test: In vitro cytotoxic activity, four cell lines together (average / overall statement); details: for GI50: read-out: In vitro Cytotoxic Activities GI50, Average; for exhibited in vitro anticancer activity at 30 μM: four cell lines
[6] = Conversion to Compound 1 by rat liver homogenate; format: in vitro ADME, Sprague Dawley rats; details: 37° C.
Protocol: The aim of this test was to determine if the phosphate prodrugs were cleaved by phosphatases present in the liver.
Rat liver (3 g from Sprague Dawley rats) was weighed into a centrifuge tube and 12 mL of Buffer A was added, representing a 1:4 tissue/buffer ratio, which were homogenized for at least 30 seconds at ambient temperature.
Stock solutions of test article, control and internal standards were prepared as shown in Table 8 by diluting the compound in the appropriate solvent.
Liver homogenate (180 μL) was transferred into Eppendorf™ tubes (polypropylene, size 1.8 mL). Tubes for Blank, 0 min, 30 min, 1 h, 2 h, 3 h, 4 h and 5 h for each concentration of compound to be tested. Blank tubes were prepared by adding 200 μL of homogenate per tube.
Immediately after vortexing, the 0 min samples (for calibration) were extracted with extraction Methods A and B (see below). The remaining tubes were incubated at 37° C. for the prescribed length of time.
The mixture was allowed to stand for 10 minutes at room temperature. It was then centrifuged at 13000 RPM for 5 minutes at 4° C. The supernatant was tested by LC-MS/MS (Method B).
A volume of 800 μL of acetonitrile containing IS 200 ng/mL (Stock F) was added to the homogenate and the mixture vortexed for 30 sec. The mixture was allowed to stand at room temperature for 10 minutes, and was centrifuged at 13000 RPM for 5 minutes at 4° C. The supernatant was tested by LC-MS/MS (Method A).
Both LC methods were accomplished using the same HPLC system (Agilent Technologies 1100 with Binary pump and autosampler, and an Agilent 1100 Autosampler needle wash to avoid contamination of the needle. Both MS/MS method were done using a MDS Sciex™ MS system under positive electrospray ionization.
Multiple Reaction Monitoring (MRM) was used as scan type in Method A MS/MS.
LC Method B (long method) was done using 20 μL of test solution on a Waters Symmetry™ C-18, 3.5μ (3.0×100 mm id) and a divert pump flow rate of 1.0 ml/min using the conditions described in Table 10.
Enhanced Product Ion (EPI) was used as scan type in Method B MS/MS.

[7] = physchem
[8] = in vivo; details: Sprague-Dawley, rat, plasma, iv, 30 mg/kg
Protocol: Each blood sample (approximately 0.5 mL) was collected into microtainer tubes containing anticoagulant K2EDTA. The samples were centrifuged at a temperature ranging from about 2 to about 8° C. for 10 minutes at 1500 g (RCF). A volume of 25 μL of 4% w/v L-aqueous acid was added to a volume of 225 μL of rat plasma in a clean tube, and the samples were mixed by inversion.
LOQ and LOD values were determined according to the concentration range used in the experiment, using a MDS Sciex API 2000™ Q-Trap™. Mean concentration values and standard deviation (SD) were calculated at each timepoints of the pharmacokinetic study (n=3 animals/timepoint).
Blood was collected, centrifuged and analyzed as above.

[9] = average of HT-29, SF-268, PC-3, MDA-MB-231

Row | SMILES | GI50 [1] [µM] | GI50 [2] [µM] | GI50 [3] [µM] | GI50 ([4]; HT-29, 96 hrs incubation) [µM] | GI50 [5, 9] [µM] | GI50 ([1]; Homo sapiens) [µM] | GI50 ([3]; Homo sapiens) [µM] | GI50 ([4]; Homo sapiens, HT-29, 96 h) [µM] | exhibited in vitro anticancer activity at 30 μM [5] | GI50 [5] [µM] | solubility [7] [mg/mL] | also measured
1 | CC(=O)Oc1cc(OC(C)=O)c2c(c1)N(C/C=C(\C)CC/C=C(\C)CCC=C(C)C)C(=O)c1cccc(O)c1N2 [D, reference compound] | 1.55 | 1.35 | 2.02 | 13 | 4.48 | – | – | – | – | – | – | –
2 | CC(C)=CCC/C(C)=C/CC/C(C)=C/CN1C(=O)c2cccc(OP(=O)(OCc3ccccc3)OCc3ccccc3)c2Nc2c(OP(=O)(OCc3ccccc3)OCc3ccccc3)cc(OP(=O)(OCc3ccccc3)OCc3ccccc3)cc21 [Compound 2, 10-farnesyl-4,6,8-tri(bisbenzyloxyphosphoryloxy)-5,10-dihydro-dibenzo[b,e][1,4]diazepin-11-one] | – | > 30 | – | – | – | > 30 | > 30 | > 30 | None | > 30 | – | –
3 | CC(C)=CCCC(C)=CCCC(C)=CCN1C(=O)c2cccc(OP(=O)(O)OCc3ccccc3)c2Nc2c(OP(=O)(O)OCc3ccccc3)cc(OP(=O)(O)OCc3ccccc3)cc21.N.N.N [Compound 9 (NH4^+)3, 10-farnesyl-4,6,8-tri(benzyloxyhydroxyphosphoryloxy)-5,10-dihydro-dibenzo[b,e][1,4]diazepin-11-one triammonium salt] | – | > 30 | – | – | – | > 30 | > 30 | > 30 | None | > 30 | > 40 | Concentration of Compound 9 (remaining prodrug) vs Time of Incubation ([6]; initial conc. 5 μg/mL in homogenate, 0 min): 1840 ng/mL; Concentration of Compound 9 (remaining prodrug) vs Time of Incubation ([6]; initial conc. 5 μg/mL in homogenate, 0.5 h): 2040 ng/mL; Concentration of Compound 9 (remaining prodrug) vs Time of Incubation ([6]; initial conc. 5 μg/mL in homogenate, 1 h): 2570 ng/mL; Concentration of Compound 9 (remaining prodrug) vs Time of Incubation ([6]; initial conc. 5 μg/mL in homogenate, 2 h): 856 ng/mL; Concentration of Compound 9 (remaining prodrug) vs Time of Incubation ([6]; initial conc. 5 μg/mL in homogenate, 3 h): 544 ng/mL; Concentration of Compound 9 (remaining prodrug) vs Time of Incubation ([6]; initial conc. 5 μg/mL in homogenate, 4 h): <LOD; Concentration of Compound 9 (remaining prodrug) vs Time of Incubation ([6]; initial conc. 5 μg/mL in homogenate, 5 h): <LOD; Concentration of Compound 9 (remaining prodrug) vs Time of Incubation ([6]; initial conc. 20 μg/mL in homogenate, 0 min): 13300 ng/mL; Concentration of Compound 9 (remaining prodrug) vs Time of Incubation ([6]; initial conc. 20 μg/mL in homogenate, 0.5 h): 14600 ng/mL; Concentration of Compound 9 (remaining prodrug) vs Time of Incubation ([6]; initial conc. 20 μg/mL in homogenate, 1 h): 9030 ng/mL; Concentration of Compound 9 (remaining prodrug) vs Time of Incubation ([6]; initial conc. 20 μg/mL in homogenate, 2 h): 2970 ng/mL; Concentration of Compound 9 (remaining prodrug) vs Time of Incubation ([6]; initial conc. 20 μg/mL in homogenate, 3 h): 1530 ng/mL; Concentration of Compound 9 (remaining prodrug) vs Time of Incubation ([6]; initial conc. 20 μg/mL in homogenate, 4 h): 1080 ng/mL; Concentration of Compound 9 (remaining prodrug) vs Time of Incubation ([6]; initial conc. 20 μg/mL in homogenate, 5 h): 948 ng/mL
4 | CC(C)=CCC/C(C)=C/CC/C(C)=C/CN1C(=O)c2cccc(O)c2Nc2c(O)cc(O)cc21 [Compound 1, 10-farnesyl4,6,8-trihydroxy-5,10-dihydrodibenzo[b,e][1,4]diazepin-11-one] | – | – | – | – | – | – | – | – | – | – | – | AUC [8]: 70200 ng·h/mL
5 | CC(C)=CCC/C(C)=C/CC/C(C)=C/CN1C(=O)c2cccc(O)c2Nc2c(OP(=O)(O)O)cc(O)cc21.N.N [Compound 21 (NH4^+)2, 4,8-dihydroxy-10-farnesyl-6-phosphonooxy-5,10-dihydro-dibenzo[b,e][1,4]diazepin-11-one diammonium salt] | – | > 30 | – | – | – | > 30 | > 30 | > 30 | None | > 30 | 5 | –
6 | CC(C)=CCC/C(C)=C/CC/C(C)=C/CN1C(=O)c2cccc(OP(=O)(O)O)c2Nc2c(OP(=O)(O)O)cc(OP(=O)(O)O)cc21 [Compound 16] | – | > 30 | – | – | – | > 30 | > 30 | > 30 | None | > 30 | > 40 | –
7 | CC(=O)Oc1cccc2c1Nc1c(OC(C)=O)cc(O)cc1N(C/C=C(\C)CC/C=C(\C)CCC=C(C)C)C2=O [B, reference compound] | 2.48 | 1.44 | 1.88 | 12.6 | 4.6 | – | – | – | – | – | – | –
8 | CC(=O)Oc1cc(OC(C)=O)c2c(c1)N(C/C=C(\C)CC/C=C(\C)CCC=C(C)C)C(=O)c1cccc(OC(C)=O)c1N2 [A, reference compound] | 2.79 | 1.2 | 1.95 | 9.33 | 3.82 | – | – | – | – | – | – | –
9 | CC(=O)Oc1cc(O)c2c(c1)N(C/C=C(\C)CC/C=C(\C)CCC=C(C)C)C(=O)c1cccc(OC(C)=O)c1N2 [C, reference compound] | 7.72 | 5.35 | 5.79 | 16 | 8.72 | – | – | – | – | – | – | –
